Where two headings read alike, the source gives them in different places.
Tests used:
[1] = target: T1, NaV1.8 (Homo sapiens, UniProt Q9Y5Y9); conditions: read-out: TTX IC50; cited from earlier work
Target sequence in this assay (Q9Y5Y9 whole entry, looked up): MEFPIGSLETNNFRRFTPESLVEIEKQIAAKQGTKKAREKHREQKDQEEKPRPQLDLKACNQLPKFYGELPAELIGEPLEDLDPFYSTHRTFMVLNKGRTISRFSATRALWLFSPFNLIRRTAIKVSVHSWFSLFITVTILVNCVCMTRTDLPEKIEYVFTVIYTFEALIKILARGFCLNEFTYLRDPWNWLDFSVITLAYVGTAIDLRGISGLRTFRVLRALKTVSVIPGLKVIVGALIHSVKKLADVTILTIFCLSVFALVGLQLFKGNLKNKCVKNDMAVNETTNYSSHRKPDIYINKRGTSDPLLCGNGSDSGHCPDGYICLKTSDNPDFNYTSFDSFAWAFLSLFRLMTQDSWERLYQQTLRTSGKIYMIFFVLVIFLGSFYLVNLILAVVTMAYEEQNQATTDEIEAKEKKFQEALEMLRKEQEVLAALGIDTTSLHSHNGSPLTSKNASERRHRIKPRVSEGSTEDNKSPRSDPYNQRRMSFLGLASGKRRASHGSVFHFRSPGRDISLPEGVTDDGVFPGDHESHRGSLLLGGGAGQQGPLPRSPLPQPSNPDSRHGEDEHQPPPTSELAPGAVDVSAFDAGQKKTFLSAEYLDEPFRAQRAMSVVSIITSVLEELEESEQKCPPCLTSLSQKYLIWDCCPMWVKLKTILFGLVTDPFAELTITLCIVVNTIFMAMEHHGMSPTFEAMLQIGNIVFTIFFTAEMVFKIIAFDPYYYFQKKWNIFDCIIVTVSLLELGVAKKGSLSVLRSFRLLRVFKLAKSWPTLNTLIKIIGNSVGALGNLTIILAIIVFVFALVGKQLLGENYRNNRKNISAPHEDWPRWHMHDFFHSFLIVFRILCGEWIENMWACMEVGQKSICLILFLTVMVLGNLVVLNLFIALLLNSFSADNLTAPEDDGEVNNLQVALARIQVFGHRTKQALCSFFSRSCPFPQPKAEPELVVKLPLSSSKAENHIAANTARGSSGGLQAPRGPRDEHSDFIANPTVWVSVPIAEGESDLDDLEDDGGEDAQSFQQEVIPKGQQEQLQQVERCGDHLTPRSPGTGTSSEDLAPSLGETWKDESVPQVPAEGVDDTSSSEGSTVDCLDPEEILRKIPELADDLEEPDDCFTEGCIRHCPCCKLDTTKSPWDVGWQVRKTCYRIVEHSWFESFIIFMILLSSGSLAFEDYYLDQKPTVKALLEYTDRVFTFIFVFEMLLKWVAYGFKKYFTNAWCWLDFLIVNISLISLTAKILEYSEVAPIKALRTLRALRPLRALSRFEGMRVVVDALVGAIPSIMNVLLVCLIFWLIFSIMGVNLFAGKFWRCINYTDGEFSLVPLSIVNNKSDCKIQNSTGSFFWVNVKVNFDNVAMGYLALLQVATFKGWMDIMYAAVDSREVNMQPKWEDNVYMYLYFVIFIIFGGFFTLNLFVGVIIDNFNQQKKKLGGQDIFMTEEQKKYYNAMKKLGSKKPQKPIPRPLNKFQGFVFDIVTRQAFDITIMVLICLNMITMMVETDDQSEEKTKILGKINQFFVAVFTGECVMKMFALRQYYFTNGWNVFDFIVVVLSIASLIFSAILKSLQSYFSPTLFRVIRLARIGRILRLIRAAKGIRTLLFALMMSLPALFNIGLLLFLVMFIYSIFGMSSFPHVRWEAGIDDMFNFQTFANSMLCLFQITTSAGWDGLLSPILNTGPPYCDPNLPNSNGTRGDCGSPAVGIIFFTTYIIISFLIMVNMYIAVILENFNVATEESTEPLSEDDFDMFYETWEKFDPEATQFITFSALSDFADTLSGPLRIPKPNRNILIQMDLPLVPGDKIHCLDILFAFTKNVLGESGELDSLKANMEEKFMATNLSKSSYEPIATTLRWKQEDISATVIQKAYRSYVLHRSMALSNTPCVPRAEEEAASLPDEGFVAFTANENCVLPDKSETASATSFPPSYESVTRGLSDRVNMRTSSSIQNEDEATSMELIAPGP

[2] = target: T2, NaV1.3 (Homo sapiens, UniProt Q9NY46); conditions: read-out: TTX IC50; cited from earlier work
T2 construct: expressed in transfected cells; host or cells: HEK293

[3] = target: NaV1.9 (Homo sapiens, UniProt Q9UI33); conditions: read-out: TTX IC50; cited from earlier work
[4] = target: NaV1.6 (Homo sapiens, UniProt Q9UQD0); conditions: read-out: TTX IC50; cited from earlier work
[5] = target: NaV1.1 (Homo sapiens, UniProt P35498); conditions: read-out: TTX IC50; cited from earlier work
[6] = target: NaV1.2 (Homo sapiens, UniProt Q99250); conditions: read-out: TTX IC50; cited from earlier work
[7] = neuropathic pain; cited from earlier work
[8] = target: T3, CaV2.2 (Homo sapiens, UniProt Q00975); assay: VIPR optical membrane potential assay with electrical stimulation, CaV2.2; type: cell-based; conditions: Table 9, CaV 2.2 receptors
T3 construct: expressed in transfected cells; host or cells: HEK293
Outline: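 HEK293 cells stably expressing CaV2.2 stained with CC2-DMPE/DiSBAC2(3) voltage-sensitive dyes (10 μM final CC2-DMPE, 30 min, RT), then compound added and cells electrically stimulated for 3-5 s. Read-out: background-subtracted 460/580 nm emission ratio; response R=Rf/Ri (post- vs pre-stimulus ratio); antagonism seen as reduced response.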

[9] = target: T2, NaV1.3; assay: VIPR optical membrane potential assay with electrical stimulation, NaV1.3; type: cell-based; conditions: Table 9, NaV 1.3 receptors
Outline: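 HEK293 cells stably expressing NaV1.3, stained with CC2-DMPE (10 μM final) then DiSBAC2(3) with ABSC1, 30 min each at RT; compounds added with oxonol. Electrical stimulation for 3 s; 460/580 nm background-subtracted emission ratio Rf/Ri, normalised to tetracaine (positive) and untreated (negative) controls.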

[10] = target: T1, NaV1.8; assay: VIPR optical membrane potential assay, NaV1.8 (other subtypes in an analogous mode); type: cell-based; conditions: Table 9, NaV 1.8 receptors
Outline: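 Cells expressing the NaV subtype stained with coumarin and DiSBAC2(3) membrane-potential dyes, then incubated with test compound for 20-30 minutes. Depolarization evoked by sodium addback and read optically on VIPR; block measured as reduced membrane-potential response, with tetracaine as positive control.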
Target sequence in this assay (Q9Y5Y9 whole entry): as the sequence (Q9Y5Y9 whole entry, looked up) above

T2 sequence (Q9NY46 whole entry): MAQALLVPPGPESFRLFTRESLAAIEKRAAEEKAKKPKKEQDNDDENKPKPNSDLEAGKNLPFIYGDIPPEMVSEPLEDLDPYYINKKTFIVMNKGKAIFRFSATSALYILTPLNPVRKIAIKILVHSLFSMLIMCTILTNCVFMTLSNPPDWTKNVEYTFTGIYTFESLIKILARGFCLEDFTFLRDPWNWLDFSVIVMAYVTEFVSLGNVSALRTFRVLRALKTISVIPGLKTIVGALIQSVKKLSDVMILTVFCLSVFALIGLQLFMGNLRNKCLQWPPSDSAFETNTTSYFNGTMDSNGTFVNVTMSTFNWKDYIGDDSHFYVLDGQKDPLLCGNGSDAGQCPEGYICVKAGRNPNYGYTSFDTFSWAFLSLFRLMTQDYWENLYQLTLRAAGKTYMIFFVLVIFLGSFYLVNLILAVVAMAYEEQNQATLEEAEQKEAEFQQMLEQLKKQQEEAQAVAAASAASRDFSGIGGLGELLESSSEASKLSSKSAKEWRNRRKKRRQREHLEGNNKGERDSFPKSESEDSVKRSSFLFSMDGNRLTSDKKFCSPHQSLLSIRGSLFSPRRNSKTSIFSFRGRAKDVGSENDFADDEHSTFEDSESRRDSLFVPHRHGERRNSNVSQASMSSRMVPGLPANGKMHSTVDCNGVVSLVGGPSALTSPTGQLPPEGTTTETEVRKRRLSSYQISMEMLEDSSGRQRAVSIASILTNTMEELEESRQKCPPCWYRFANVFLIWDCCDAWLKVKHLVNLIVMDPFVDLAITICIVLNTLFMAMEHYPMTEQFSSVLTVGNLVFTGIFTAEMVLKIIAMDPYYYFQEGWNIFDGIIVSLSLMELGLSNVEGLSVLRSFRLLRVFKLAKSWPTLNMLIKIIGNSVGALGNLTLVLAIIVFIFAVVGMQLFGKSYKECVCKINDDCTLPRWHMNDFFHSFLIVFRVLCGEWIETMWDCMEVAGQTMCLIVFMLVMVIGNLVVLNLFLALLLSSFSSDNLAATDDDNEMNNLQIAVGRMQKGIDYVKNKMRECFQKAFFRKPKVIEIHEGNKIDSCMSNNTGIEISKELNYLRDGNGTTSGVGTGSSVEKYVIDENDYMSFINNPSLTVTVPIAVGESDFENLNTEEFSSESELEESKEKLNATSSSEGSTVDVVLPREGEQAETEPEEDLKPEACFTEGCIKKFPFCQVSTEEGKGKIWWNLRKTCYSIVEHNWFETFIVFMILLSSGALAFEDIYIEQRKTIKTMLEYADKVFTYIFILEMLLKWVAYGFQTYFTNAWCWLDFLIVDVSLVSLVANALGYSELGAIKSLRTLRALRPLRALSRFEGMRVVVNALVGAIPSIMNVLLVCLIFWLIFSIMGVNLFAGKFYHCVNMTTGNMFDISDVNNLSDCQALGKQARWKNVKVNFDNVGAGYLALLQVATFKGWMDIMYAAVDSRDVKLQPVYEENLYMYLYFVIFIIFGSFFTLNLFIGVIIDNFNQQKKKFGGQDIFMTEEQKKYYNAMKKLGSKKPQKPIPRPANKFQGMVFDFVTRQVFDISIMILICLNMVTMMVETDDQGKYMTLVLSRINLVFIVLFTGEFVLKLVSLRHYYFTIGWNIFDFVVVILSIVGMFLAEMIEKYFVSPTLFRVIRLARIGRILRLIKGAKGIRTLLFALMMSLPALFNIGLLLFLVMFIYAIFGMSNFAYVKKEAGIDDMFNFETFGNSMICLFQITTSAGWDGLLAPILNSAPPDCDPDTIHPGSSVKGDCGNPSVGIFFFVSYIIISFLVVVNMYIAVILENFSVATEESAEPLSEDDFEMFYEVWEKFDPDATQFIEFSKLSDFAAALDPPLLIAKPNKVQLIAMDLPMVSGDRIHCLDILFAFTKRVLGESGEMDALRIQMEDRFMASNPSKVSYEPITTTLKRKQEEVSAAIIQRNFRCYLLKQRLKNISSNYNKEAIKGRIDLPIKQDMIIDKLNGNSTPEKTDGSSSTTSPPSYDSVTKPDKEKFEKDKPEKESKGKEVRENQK

NC1=N[C@H](O)[C@H]2[C@H]3O[C@]4(O)O[C@@H]([C@@H](O)[C@@]2(N1)[C@@H]4O)[C@]3(O)CO [TTX, tetrodotoxin]
IC50 [1]: > 50 µM | IC50 [2]: 0.015 µM | IC50 [3]: 1 µM | IC50 [4]: 0.006 µM | IC50 [5]: 0.01 µM | IC50 [6]: 0.01 µM

NCC1(CC(=O)O)CCCCC1 [Gabapentin]
patients in whom it works [7]: 60%

COc1ccc(CN(C(=O)c2cnc(N3CCOCC3)nc2-c2ccccc2F)C2CC2)cc1 [compound 142]
IC50 [8]: < 2 µM | IC50 [9]: < 2 µM | IC50 [10]: < 2 µM

CN(C)CCN(Cc1ccccc1)C(=O)c1cnc(N2CCOCC2)nc1-c1ccccc1F [compound 28]
IC50 [8]: > 10 µM | IC50 [9]: > 10 µM | IC50 [10]: > 10 µM

O=C(c1cnc(N2CCOCC2)nc1-c1ccccc1F)N(Cc1ccncc1)C1CC1 [compound 205]
IC50 [8]: > 10 µM | IC50 [9]: > 10 µM | IC50 [10]: > 10 µM

COc1cccc(N(C(=O)c2cnc(N3CCCCC3)nc2-c2ccccc2F)C2CCCCC2)c1 [compound 127]
IC50 [8]: 2 to 10 µM | IC50 [9]: 2 to 10 µM | IC50 [10]: > 10 µM

CC(C)N(Cc1ccccc1)C(=O)c1cnc(NCc2cccc3ccccc23)nc1-c1ccccc1F [compound 135]
IC50 [8]: 2 to 10 µM | IC50 [9]: > 10 µM | IC50 [10]: > 10 µM

CN1CCN(c2ncc(C(=O)N(Cc3ccc(F)cc3)C3CC3)c(-c3ccccc3F)n2)CC1 [compound 39]
IC50 [8]: > 10 µM | IC50 [9]: > 10 µM | IC50 [10]: > 10 µM

CCC(=O)C1(c2ccccc2)CCN(C(=O)c2cnc(N3CCOCC3)nc2-c2ccccc2F)CC1 [compound 57]
IC50 [8]: > 10 µM | IC50 [9]: > 10 µM | IC50 [10]: > 10 µM

CC(C)N(Cc1ccc(N2CCCC2)cc1)C(=O)c1cnc(N2CCC3CCCCC3C2)nc1-c1ccccc1F (stereo not shown) [compound 137]
IC50 [8]: < 2 µM | IC50 [9]: > 10 µM | IC50 [10]: > 10 µM

CC(C)N(Cc1ccc(C(C)(C)C)cc1)C(=O)c1cnc(N2CCSCC2)nc1-c1ccccc1F [compound 59]
IC50 [8]: < 2 µM | IC50 [9]: 2 to 10 µM | IC50 [10]: 2 to 10 µM

O=C(c1cnc(N2CCSCC2)nc1-c1ccccc1F)N(Cc1ccccc1)C1CCC1 [compound 80]
IC50 [8]: 2 to 10 µM | IC50 [9]: 2 to 10 µM | IC50 [10]: > 10 µM

CC(C)N(C(=O)c1cnc(N2CCOCC2)nc1-c1ccccc1F)c1cccc(C#N)c1 [compound 202]
IC50 [8]: > 10 µM | IC50 [9]: > 10 µM | IC50 [10]: > 10 µM

CC(C)N(Cc1ccc(N2CCCC2)cc1)C(=O)c1cnc(N2CCCCC2)nc1-c1ccccc1F [compound 50]
IC50 [8]: 2 to 10 µM | IC50 [9]: > 10 µM | IC50 [10]: > 10 µM

COc1cccc(N(C(=O)c2cnc(N3CCCCC3)nc2-c2ccccc2Cl)C2CCC2)c1 [compound 27]
IC50 [8]: 2 to 10 µM | IC50 [9]: 2 to 10 µM | IC50 [10]: > 10 µM

CC(C)N(Cc1ccccc1)C(=O)c1cnc(N2Cc3ccccc3C2)nc1-c1ccccc1F [compound 130]
IC50 [8]: 2 to 10 µM | IC50 [9]: 2 to 10 µM | IC50 [10]: > 10 µM

CC(C)N(Cc1ccccc1)C(=O)c1cnc(NCC(=O)O)nc1-c1ccccc1F [compound 153]
IC50 [8]: > 10 µM | IC50 [9]: > 10 µM | IC50 [10]: > 10 µM

Cc1nc(N2CCOCC2)nc(-c2ccccc2F)c1C(=O)N(Cc1ccc2c(c1)CCO2)C1CC1 [compound 200]
IC50 [8]: 2 to 10 µM | IC50 [9]: 2 to 10 µM | IC50 [10]: > 10 µM

O=C(NC(CN1CCCC1)c1ccccc1)c1cnc(N2CCOCC2)nc1-c1ccccc1F (stereo not shown) [compound 37]
IC50 [8]: > 10 µM | IC50 [9]: > 10 µM | IC50 [10]: > 10 µM

O=C(NC1CCCC1)c1cnc(N2CCOCC2)nc1-c1ccccc1F [compound 19]
IC50 [8]: > 10 µM | IC50 [9]: > 10 µM | IC50 [10]: > 10 µM

COc1cccc(N(C(=O)c2cnc(N3CCC4CCCCC4C3)nc2-c2ccccc2F)C2CC2)c1 (stereo not shown) [compound 189]
IC50 [8]: 2 to 10 µM | IC50 [9]: > 10 µM | IC50 [10]: > 10 µM

O=C(c1cnc(N2CCOCC2)nc1-c1ccccc1F)N1CC=C(c2ccccc2)CC1 [compound 91]
IC50 [8]: > 10 µM | IC50 [9]: > 10 µM | IC50 [10]: > 10 µM

COc1ccc(N(C(=O)c2cnc(N3CCC4CCCCC4C3)nc2-c2ccccc2F)C(C)C)cc1 (stereo not shown) [compound 12]
IC50 [8]: < 2 µM | IC50 [9]: > 10 µM | IC50 [10]: > 10 µM

O=C(c1cnc(N2CCOCC2)nc1-c1ccccc1F)N(Cc1ccc2c(c1)CCO2)C1CC1 [compound 53]
IC50 [8]: 2 to 10 µM | IC50 [9]: 2 to 10 µM | IC50 [10]: > 10 µM

O=C(NC1CCC1)c1cnc(N2CCOCC2)nc1-c1ccccc1F [compound 174]
IC50 [8]: > 10 µM | IC50 [9]: > 10 µM | IC50 [10]: > 10 µM

CC(C)N(C(=O)c1cnc(N2CCCCC2)nc1-c1ccccc1F)c1cccc(C(C)(C)C)c1 [compound 41]
IC50 [8]: > 10 µM | IC50 [9]: 2 to 10 µM | IC50 [10]: > 10 µM

COc1cccc(N(C(=O)c2cnc(N3CCCCC3)nc2-c2ccccc2F)C(C)C)c1 [compound 133]
IC50 [8]: 2 to 10 µM | IC50 [9]: 2 to 10 µM | IC50 [10]: > 10 µM

O=C(c1cnc(N2CCOCC2)nc1-c1ccccc1F)N(Cc1ccc(F)cc1)C1CC1 [compound 128]
IC50 [8]: 2 to 10 µM | IC50 [9]: 2 to 10 µM | IC50 [10]: > 10 µM

O=C(c1cnc(N2CCOCC2)nc1-c1ccccc1F)N(Cc1cccc(F)c1)C1CC1 [compound 110]
IC50 [8]: 2 to 10 µM | IC50 [9]: > 10 µM | IC50 [10]: > 10 µM

CN1CCN(c2ncc(C(=O)N(Cc3ccccc3)C3CCC3)c(-c3ccccc3F)n2)CC1 [compound 180]
IC50 [8]: 2 to 10 µM | IC50 [9]: 2 to 10 µM | IC50 [10]: > 10 µM

Cc1nc(N2CCOCC2)nc(-c2ccccc2F)c1C(=O)N(Cc1ccccc1)C1CC1 [compound 145]
IC50 [8]: 2 to 10 µM | IC50 [9]: 2 to 10 µM | IC50 [10]: > 10 µM

COc1cccc(CN(C(=O)c2cnc(N3CCc4ccccc4C3)nc2-c2ccccc2F)C(C)C)c1 [compound 22]
IC50 [8]: < 2 µM | IC50 [9]: 2 to 10 µM | IC50 [10]: > 10 µM

CC(C)N(C(=O)c1cnc(N2CCCCC2)nc1-c1ccccc1F)c1cccc(C#N)c1 [compound 125]
IC50 [8]: 2 to 10 µM | IC50 [9]: > 10 µM | IC50 [10]: > 10 µM

COc1cccc(CN(C(=O)c2cnc(N3CCSCC3)nc2-c2ccccc2F)C(C)C)c1 [compound 131]
IC50 [8]: < 2 µM | IC50 [9]: 2 to 10 µM | IC50 [10]: 2 to 10 µM

CCN(CCOC)c1ncc(C(=O)N(Cc2ccccc2)C(C)C)c(-c2ccccc2F)n1 [compound 83]
IC50 [8]: < 2 µM | IC50 [9]: 2 to 10 µM | IC50 [10]: 2 to 10 µM

CC1COc2ccccc2N1C(=O)c1cnc(N2CCOCC2)nc1-c1ccccc1F (stereo not shown) [compound 84]
IC50 [8]: > 10 µM | IC50 [9]: > 10 µM | IC50 [10]: > 10 µM

O=C(c1cnc(N2CCOCC2)nc1-c1ccccc1F)N1Cc2ccccc2C1 [compound 187]
IC50 [8]: > 10 µM | IC50 [9]: > 10 µM | IC50 [10]: > 10 µM

O=C(c1cnc(N2CCOCC2)nc1-c1ccccc1F)N(Cc1cccc(-c2ccncc2)c1)C1CC1 [compound 60]
IC50 [8]: 2 to 10 µM | IC50 [9]: > 10 µM | IC50 [10]: > 10 µM

COc1cccc(CN(C(=O)c2cnc(N3CCOCC3)nc2-c2ccccc2F)C2CC2)c1 [compound 56]
IC50 [8]: 2 to 10 µM | IC50 [9]: > 10 µM | IC50 [10]: > 10 µM

CC(C)N(Cc1ccccc1)C(=O)c1cnc(N2CCC3CCCCC3C2)nc1-c1ccccc1F (stereo not shown) [compound 92]
IC50 [8]: < 2 µM | IC50 [9]: > 10 µM | IC50 [10]: > 10 µM

COc1ccc(N(C(=O)c2cnc(N3CCCCC3)nc2-c2ccccc2F)C(C)C)cc1 [compound 108]
IC50 [8]: < 2 µM | IC50 [9]: 2 to 10 µM | IC50 [10]: > 10 µM

CCN(CCC#N)c1ncc(C(=O)N(Cc2ccccc2)C(C)C)c(-c2ccccc2F)n1 [compound 96]
IC50 [8]: < 2 µM | IC50 [9]: 2 to 10 µM | IC50 [10]: > 10 µM

COc1cccc(CN(C(=O)c2cnc(N3Cc4ccccc4C3)nc2-c2ccccc2F)C(C)C)c1 [compound 134]
IC50 [8]: < 2 µM | IC50 [9]: 2 to 10 µM | IC50 [10]: > 10 µM

CC(C)Oc1ccc(-c2nc(N3CCOCC3)ncc2C(=O)N(Cc2ccccc2)C(C)C)cc1 [compound 170]
IC50 [8]: > 10 µM | IC50 [9]: > 10 µM | IC50 [10]: > 10 µM
